Assays:
[1] = test system: SW620 cells (colorectal cell line); assay: Plasma stability of cyclic peptide in colorectal cancer model (IFN-γ T cell recognition after plasma treatment); format: in vitro ADME, human; conditions: no target cells
Method: (§1) These cells were incubated with peptide-specific T cells overnight and IFN-γ assayed for T cell recognition of the processed peptide.

[2] = test system: SW620 cells (colorectal cell line); assay: SW620 colorectal cell line pulsed with cyclic or linear peptide with or without protease inhibitor cocktail; IFN-γ assayed for T cell recognition; format: cell-based; conditions: 10 ug peptide
Method: SW620 cells (colorectal cell line) incubated with or without a protease inhibitor cocktail for 2 hrs at 37° C. […] These cells were incubated with peptide-specific T cells overnight and IFN-γ assayed for T cell recognition of the processed peptide.
As a control for this, T cells alone were treated with the cyclic peptide. T cells should not process the cyclic form of the peptide but would be able to present the linear form and therefore the level of IFN-γ produced in this control would account for the amount of linear peptide present in the vial of cyclic peptide.

[3] = test system: LCLs (tumour B cells); assay: Plasma stability of cyclic peptide in LCL model (IFN-γ T cell recognition after plasma treatment); format: in vitro ADME, human
Method: LCLs (tumour B cells) were incubated with or without a protease inhibitor cocktail (PIC) for 2 hrs at 37° C. […] These cells were incubated with peptide-specific T cells overnight and IFN-γ assayed for T cell recognition of the processed peptide.

[4] = test system: healthy B cells; assay: Healthy B cells pulsed with cyclic or linear peptide with or without protease inhibitor cocktail; IFN-γ assayed for T cell recognition; format: cell-based; conditions: 10 ug peptide
Method: LCLs (tumour B cells) or healthy B cells were incubated with or without a protease inhibitor cocktail for 2 hrs at 37° C. […] The amino acid sequence of the cyclic peptide was […] (SEQ ID No: 278). The protease cleavage sequence “FR” is recognised by Cathepsin B and the T cell epitope […] is restricted to HLA-A*0201. The cyclic peptide was obtained from JPT Peptide Technologies. These cells were incubated with peptide-specific T cells overnight and IFN-γ assayed for T cell recognition of the processed peptide.

[5] = test system: LCLs (tumour B cells); assay: LCL pulsed with cyclic or linear peptide with or without protease inhibitor cocktail; IFN-γ assayed for T cell recognition; format: cell-based; conditions: 10 ug peptide
Method: LCLs (tumour B cells) were incubated with or without a protease inhibitor cocktail for 2 hrs at 37° C. […] (SEQ ID No: 278). The protease cleavage sequence “FR” is recognised by Cathepsin B and the T cell epitope […] is restricted to HLA-A*0201. […] These cells were incubated with peptide-specific T cells overnight and IFN-γ assayed for T cell recognition of the processed peptide.

[6] = test system: LCL target cells; assay: Comparison of the plasma stability of cyclic peptide and APEC in LCL model (IFN-γ T cell recognition after plasma treatment); format: in vitro ADME, human; conditions: no target cells
Method: as §1

[7] = protease inhibitor cocktail 2 hrs at 37° C

In the case of FRGGANLVPMVATVAA [cyclic peptide], the “response of T cells alone labelled with the peptide, without and with serum treatment” value (“response … without and with serum treatment” for short) [1] was “very small response to the peptide which then disappears upon treatment of the peptide with serum”, the “response with the protease inhibitors compared with T cells cultured with the cyclic peptide alone” value [2] was “very similar to the level seen when T cells were cultured with the cyclic peptide alone” and the “T cell recognition (IFN-γ) of pulsed target cells, with versus without protease inhibitors” value [2, 7] was “much larger response to IFN-γ when cultured in the absence of the protease inhibitors”. The “decrease in the T cell recognition in the presence of the protease inhibitors” value [2, 7] was roughly 65%, the “effect of protease inhibitor cocktail on response to plasma-treated peptide” value ([3]; LCLs pre-incubated with PIC, peptide treated 4 hrs with human plasma) was “there is a decrease when target cells were pre-incubated with the protease inhibitor cocktail” and the “response … without and with serum treatment” value ([3]; T cells alone, no target cells) was “very small response to the peptide which then disappears upon treatment of the peptide with serum”. The “amount of IFN-γ with healthy B cells compared with LCL” value [4] was “significantly decreased amount of IFN-γ compared to the LCL treated with the cyclic peptide”, the “T cell recognition (IFN-γ) of pulsed healthy B cells, with versus without protease inhibitors” value [4, 7] was “little difference in the response” and the “response with the protease inhibitors compared with T cells cultured with the cyclic peptide alone” value [5] was “very similar to the level seen when T cells were cultured with the cyclic peptide alone”. For the same sequence, the “decrease in the T cell recognition in the presence of the protease inhibitors” value [5, 7] was roughly 75%, the “T cell recognition (IFN-γ) of pulsed target cells, with versus without protease inhibitors” value ([5]; protease inhibitor cocktail 2 hrs at 37° C, peptide-specific T cells overnight) was “much larger response to IFN-γ when cultured in the absence of the protease inhibitors” and the “response … without and with serum treatment” value [6] was “very small response to the peptide which then disappears upon treatment of the peptide with serum”.

Reference: US20160206726A1, “IMMUNOTHERAPY” (priority 2013, published 2016)
